Assays:
Tubulin [1] = target: T1, Tubulin (Sus scrofa, UniProt P02554+P02550); assay: In vitro tubulin polymerization-inhibitory activity.; assay type: protein assay
PC-12 = assay: Compound was evaluated for in vitro growth inhibition activity against multi drug resistant (MDR) PC-12 cell line.; assay type: functional; conditions: Rattus norvegicus
PC-6 = assay: Compound was evaluated for in vitro growth inhibition activity against sensitive PC-6 cell line.; assay type: functional, Rattus norvegicus
Tubulin [2] = target: T1, Tubulin; assay: In vitro tubulin polymerization-inhibitory activity; 4-6; assay type: protein assay

| IC50 (Tubulin [1]) | IC50 (Tubulin [2]) | Molecule | GI50 (PC-12) | GI50 (PC-6; Homo sapiens) | GI50 (PC-6; Rattus norvegicus) |
| --- | --- | --- | --- | --- | --- |
| > 50000 nM |  | COc1ccc([C@H]2OCO[C@@H]2c2cc(OC)c(OC)c(OC)c2)cc1O |  |  |  |
|  | 4000 nM | COc1ccc([C@@H]2OCO[C@H]2c2cc(OC)c(OC)c(OC)c2)cc1O | 5.19 nM | 5.41 nM |  |
|  |  | CC[C@]1(O)C[C@H]2CN(CCc3c([nH]c4ccccc34)[C@@](C(=O)OC)(c3cc4c(cc3OC)N(C=O)[C@H]3[C@@](O)(C(=O)OC)[C@H](OC(C)=O)[C@]5(CC)C=CCN6CC[C@]43[C@@H]65)C2)C1 [VINCRISTINE] | 104 nM | 1.14 nM |  |
|  |  | CISPLATIN | 300 nM |  | 563 nM |

Reference: ChEMBL document CHEMBL1130905, “Asymmetric synthesis of antimitotic combretadioxolane with potent antitumor activity against multi-drug resistant cells” (Bioorg Med Chem Lett, 1998)
